Source: patent US20170216297A1, “EFFICIENT INHIBITION OF HSP27” (TECHNISCHE UNIVERSITAET DRESDEN, priority 2014, published 2017)

Tested on: U937 cells
Test: Development of resistance to bortezomib in U937 cells
Assay type: cell-based
Experimental: For this purpose, U937 cells (histiocytic lymphoma) were cultured in DMEM culture medium (+10% FCS) at 37° C., 5% CO2 in an H2O-saturated atmosphere. 100,000 cells/ml were seeded and incubated with the cytostatic agent bortezomib (0.1 ng/ml) and the respective test substance (dosage in the current experiment: 1 μM/L acepromazine). The reference substance, BVDU, was employed at a concentration of 30 μM/L. The cells were in each case passaged before the cell count reached 1,000,000 cells/ml. At each passage, 100,000 cells/ml were again seeded and the dose of the cytostatic agent bortezomib was increased stepwise (0.1 ng/mL or 0.05 ng/mL). The concentration of the test substances remained constant. As a result of the stepwise increase in the dosage of the cytostatic agent, resistance developed in the U937 cells. The development of resistance is prevented or inhibited in the case of a positively tested HSP27 inhibitor. The experiments from Example 6 were repeated in the same way, wherein U937 cells (histiocytic lymphoma) are cultured in DMEM culture medium (+10% FCS) at 37° C., 5% CO2 in an H2O— saturated atmosphere. 100,000 cells/ml were seeded and incubated with an initial concentration of 0.2 ng/ml of the cytostatic agent bortezomib and both without an inhibitor and with acepromazine as an HSP27 inhibitor at a concentration of 1 μM/L. The reference substance, BVDU, was employed at a concentration of 30 μM/L. The cells were passaged in each case before the cell count reached 1,000,000 cells/ml. At each passage, 100,000 cells/ml were again seeded and the dose of the cytostatic agent bortezomib was increased stepwise by 0.1 ng/mL. The concentration of the test substance and the reference substance remained constant. As a result of the stepwise increase in the dosage of the cytostatic agent, resistance developed in the U937 cells. The development of resistance is prevented or inhibited in the case of a positively tested HSP27 inhibitor. The cell line U-937 is a histiocytic lymphoma (DSMZ ACC 5). This cell line also responds to treatment with bortezomib, expresses HSP27 and develops resistance to bortezomib. Bortezomib is not the standard therapy for this lymphoma, but is being discussed as a possible therapeutic agent. U-937 cells were seeded with a cell count of 100,000 cells/ml in each case and regularly passaged. […] At the end of the experiment, 70,000 living cells per ml medium could be detected. For the treatment with 30 μmol/L BVDU, a final cell count of 250,000 cells/ml was detected whereas the final cell count in the culture without the addition of an HSP27 inhibitor amounted to 450,000 cells/ml. As a control, U-937 cells were treated with the respective test substances alone, FIG. 10b.

## CC(=O)c1ccc2c(c1)N(CCCN(C)C)c1ccccc1S2 [Acepromazine]
Example 6, FIG. 2: bortezomib 0.1 to 0.5 ng/ml stepwise, +1 μM inhibitor, without inhibitor 790,000 cells/ml
  living cells after the end of the experiment: no living cells were detectable
Example 6, FIG. 2: bortezomib 0.1 to 0.5 ng/ml, +1 μM inhibitor
  development of resistance to bortezomib: no development of resistance occurred
Example 7, FIG. 3: bortezomib 0.2 to 0.4 ng/ml stepwise, +1 μM inhibitor, without inhibitor 230,000 cells/ml
  living cells after the end of the experiment: no living cells were detectable
Example 7, FIG. 3: bortezomib 0.2 to 0.4 ng/ml, +1 μM inhibitor
  development of resistance to bortezomib: no development of resistance occurred
Examples 17/18: bortezomib 0.1-0.5 ng/ml, plus 0.75 μmol/L inhibitor
  development of resistance to bortezomib: significantly inhibited
